Test results published in US20220411380A1, “ACID ADDITION SALT OF RORy REGULATOR” (JIANGSU HENGRUI MEDICINE CO., LTD., priority 2019, published 2022).
pIC50: −log10 of the molar value. One block for each molecule: values may come before it.

Columns and labels:
[1] = test system: IL-17A production in human peripheral blood mononuclear cells; experiment: Inhibition of cytokine IL-17A production in human peripheral blood mononuclear cells; assay type: cell-based; settings: 72 h; human PBMC, cytostim, 3 days, IL-17A ELISA
Procedure: Test Example 2. Assay for Inhibiting Cytokine IL-17A Production in Human Peripheral Blood Mononuclear Cells
Frozen human peripheral blood mononuclear cells (PBMCs) were rapidly thawed in a pre-warmed lymphocyte medium and centrifuged at 1000 rpm for 10 min. The cell culture supernatant was discarded, and the cells were gently suspended in the TexMACS medium and counted. T cell activating reagent cytostim (10 μL/mL) was added to the cell suspension in certain proportions, and then the cells were seeded in a 96-well cell culture plate at a density of 1×10^5 PBMCs/well. Test compounds were diluted in gradient using TexMACS medium and added to the treatment wells in 2-3 replicates. Negative control wells containing cells only without cytostim were prepared to obtain background readings. The cell culture plate was incubated in a 5% carbon dioxide/37° C. incubator for 3 days. Cell culture supernatant was collected 3 days after treatment and centrifuged to remove the suspended matter. IL-17A in the supernatant was then quantified using an IL-17A enzyme-linked immunosorbent assay kit. […]
In the calculation equation, inhibition % is inhibition rate; OD(NC) is the reading of cells in negative control groups with no cytostim and no compound; OD(PC) is the reading of cells in positive control groups with cytostim but no compound; OD(compound) is the reading of cells with cytostim and compound.

RORγ LBD-GST tagged = target: T1, RORγ LBD-GST tagged (Homo sapiens, UniProt P51449); experiment: LanthaScreen TR-FRET RORγ-LBD and co-activation peptide biochemical assay; settings: Fluorescein-D22 coactivator, read-out: RORγ coactivation assay (IC50)
T1 construct: RORγ LBD-GST tagged (Cat No. RORC-114H, Creative Biomart); purchased Creative Biomart RORC-114H
T1 sequence (P51449 269-508 limits assumed): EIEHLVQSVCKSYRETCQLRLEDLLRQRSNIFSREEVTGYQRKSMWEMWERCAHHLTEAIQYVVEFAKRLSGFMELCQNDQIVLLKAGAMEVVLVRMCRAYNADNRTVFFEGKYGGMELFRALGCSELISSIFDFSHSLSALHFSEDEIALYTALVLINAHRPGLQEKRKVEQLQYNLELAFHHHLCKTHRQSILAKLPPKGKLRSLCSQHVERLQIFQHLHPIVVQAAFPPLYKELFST
Procedure: Test Example 1. Biochemical Assay of LanthaScreen TR-FRET RORγ-LBD and Co-Activation Peptide
Complete TR-FRET Coregulator Buffer D was prepared by diluting 1 M DTT with TR-FRET Coregulator Buffer D to a final concentration of 5 mM DTT. The compounds were diluted in Complete TR-FRET Coregulator Buffer D. The solutions were serially 7-fold diluted from an initial concentration of 3 μM to the 7th concentration. 10 μL of the dilutions was added to each well of the 384-well plate. For negative and positive controls, 10 μL of Complete TR-FRET Coregulator Buffer D was added.
A RORγ LBD solution was prepared using Complete TR-FRET Coregulator Buffer D. The final concentration of the RORγ LBD solution in each reaction was 25 ng. Other than the negative wells receiving 5 μL of Complete TR-FRET Coregulator Buffer D, 5 μL of the RORγ LBD solution was added to the remaining wells of the 384-well assay plate.
Complete TR-FRET Coregulator Buffer D was used to prepare a solution containing 0.6 μM Fluorescein-D22 and 8 nM Tbanti-GST antibody, and 5 μL of the prepared solution was added to all wells of the 384-well assay plate. […]
The plate was measured on a Tecan Infinite M1000 plate reader at wavelengths of 520 nm and 495 nm. IC50 values were calculated using GraphPad Prism by plotting log compound concentration versus percentage inhibition.

[2] = Long-term/accelerated stability study of amorphous form of compound of formula II; assay type: physicochemical
Procedure: The amorphous form of the compound of formula II (Example 4) was subjected to a long-term (25° C., 60% RH)/accelerated (40° C., 75% RH) stability study with a period of 3 months.

[3] = Influencing factor study of amorphous form of compound of formula II; assay type: physicochemical
Procedure: A sample of the amorphous form of the compound of formula II (Example 4) was let stand open to examine the stability of the sample in conditions of heating (40° C. and 60° C.), illumination (4500 Lux) and high humidity (RH 75% and RH 90%) in a period of 30 days.

[4] = Long-term/accelerated stability study of amorphous form of compound of formula II; assay type: physicochemical; remark: listed apart in the source

pIC50 [1]: 8.00 | pIC50 (RORγ LBD-GST tagged): 7.89
SMILES: NC(=O)C[C@H](c1ccc(S(=O)(=O)CC2CC2)cc1)c1nc2cc(-c3ccccc3OC(F)F)c(Cl)cc2[nH]1 (single isomer, unassigned) [compound of formula II]

Stability (conclusion of long-term/accelerated study) ([2]; 25° C., 60% RH and 40° C., 75% RH, 3 months): good chemical stability | Chiral purity Initial ([2]; 25° C., 60% RH, Initial): 99.2 | Purity Initial ([2]; 25° C., 60% RH, Initial): 99.87 | Purity (%) Month 1 ([2]; 25° C., 60% RH): 99.86% | Purity (%) Month 2 ([2]; 25° C., 60% RH, Month 2): 99.86% | Chiral purity Initial ([2]; 40° C., 75% RH, Initial): 99.2 | Purity (%) Month 1 ([2]; 40° C., 75% RH): 99.87% | Chiral purity (%) Month 3 ([2]; 40° C., 75% RH, Month 3): 99.1% | Purity (%) Month 3 ([2]; 40° C., 75% RH, Month 3): 99.88% | Amorphous form Purity (%) ([3]; 40° C., 5 days): 99.93% | Color and appearance ([3]; 40° C., 5 days): White solid | Amorphous form Purity (%) ([3]; 40° C., 10 days): 99.90% | Chiral purity ([3]; 40° C., 10 days): 99.4 | Color and appearance ([3]; 40° C., 10 days): White solid | Amorphous form Purity (%) ([3]; 40° C., 30 days): 99.92% | Chiral purity ([3]; 40° C., 30 days): 99.5 | Color and appearance ([3]; 40° C., 30 days): White solid | Amorphous form Purity (%) ([3]; 60° C., 5 days): 99.95% | Color and appearance ([3]; 60° C., 5 days): White solid | Amorphous form Purity (%) ([3]; 60° C., 10 days): 99.95% | Chiral purity ([3]; 60° C., 10 days): 99.4 | Color and appearance ([3]; 60° C., 10 days): White solid | Amorphous form Purity (%) ([3]; 60° C., 30 days): 99.95% | Chiral purity ([3]; 60° C., 30 days): 99.4 | Color and appearance ([3]; 60° C., 30 days): White solid | Amorphous form Purity (%) ([3]; 4500 Lux, 5 days): 99.91% | Color and appearance ([3]; 4500 Lux, 5 days): White solid | Amorphous form Purity (%) ([3]; 4500 Lux, 10 days): 99.91% | Chiral purity ([3]; 4500 Lux, 10 days): 99.3 | Color and appearance ([3]; 4500 Lux, 10 days): White solid | Amorphous form Purity (%) ([3]; 4500 Lux, 30 days): 99.93% | Chiral purity ([3]; 4500 Lux, 30 days): 99.3 | Color and appearance ([3]; 4500 Lux, 30 days): White solid | Stability (conclusion of influencing factor study) ([3]; 30 days, illumination, 40° C., 60° C., high humidity of 75% and 90%): good chemical stability | Amorphous form Purity (%) ([3]; Initial, 0 days): 99.91% | Chiral purity ([3]; Initial, 0 days): 99.4 | Color and appearance ([3]; Initial, 0 days): White solid | Amorphous form Purity (%) ([3]; RH 75%, 5 days): 99.92% | Color and appearance ([3]; RH 75%, 5 days): White solid | Weight gain (%) ([3]; RH 75%, 5 days): 10.42% | Amorphous form Purity (%) ([3]; RH 75%, 10 days): 99.90% | Chiral purity ([3]; RH 75%, 10 days): 99.3 | Color and appearance ([3]; RH 75%, 10 days): White solid | Weight gain (%) ([3]; RH 75%, 10 days): 13.2% | Amorphous form Purity (%) ([3]; RH 75%, 30 days): 99.90% | Chiral purity ([3]; RH 75%, 30 days): 99.4 | Color and appearance ([3]; RH 75%, 30 days): White solid | Weight gain (%) ([3]; RH 75%, 30 days): 23.24% | Amorphous form Purity (%) ([3]; RH 90%, 5 days): 99.91% | Color and appearance ([3]; RH 90%, 5 days): White solid | Weight gain (%) ([3]; RH 90%, 5 days): 21.67% | Amorphous form Purity (%) ([3]; RH 90%, 10 days): 99.92% | Chiral purity ([3]; RH 90%, 10 days): 99.4 | Color and appearance ([3]; RH 90%, 10 days): White solid | Weight gain (%) ([3]; RH 90%, 10 days): 26.49% | Amorphous form Purity (%) ([3]; RH 90%, 30 days): 99.89% | Chiral purity ([3]; RH 90%, 30 days): 99.4 | Color and appearance ([3]; RH 90%, 30 days): White solid | Weight gain (%) ([3]; RH 90%, 30 days): 37.24% | Chiral purity Initial ([4]; 5° C., Initial): 99.2 | Purity Initial ([4]; 5° C., Initial): 99.87 | Purity (%) Month 1 ([4]; 5° C., Month 1): 99.86% | Purity (%) Month 2 ([4]; 5° C.): 99.86% | Chiral purity (%) Month 3 ([4]; 5° C.): 99.1% | Purity (%) Month 3 ([4]; 5° C.): 99.85% | Chiral purity (%) Month 3 ([4]; 25° C., 60% RH): 99.2% | Purity (%) Month 3 ([4]; 25° C., 60% RH): 99.85% | Purity Initial ([4]; 40° C., 75% RH, Initial): 99.87 | Purity (%) Month 2 ([4]; 40° C., 75% RH): 99.86%
SMILES: NC(=O)C[C@H](c1ccc(S(=O)(=O)CC2CC2)cc1)c1nc2cc(-c3ccccc3OC(F)F)c(Cl)cc2[nH]1 [amorphous form of compound of formula II]
